According to patent US20130252923A1, “SKIN-BEAUTIFYING AGENT” (MEGMILK SNOW BRAND CO., LTD., priority 2007, published 2013):

Tests used:
[1] = tested on: hairless mice (Hos: HR-1); assay: TEWL of the skin (Tewameter) after oral administration, animal test; type: in vivo; conditions: three weeks, positive control
Description: (§1) A skin-beautifying effect of milk-derived phospholipid was evaluated using the compositions containing milk-derived phospholipid obtained in Examples 1 and 2. In experiments 13-week-old hairless mice (Hos: HR-1) were used. […] A water content and TEWL of the skin of the tail and the base of the tail of the mice were measured at the initiation of the test and the completion of the test. Values obtained at the completion of the test were calculated by setting each value obtained at the initiation of the test as 100, and the obtained values were provided as a rate of increase. A water content of the skin and TEWL were measured with a Corneometer and a Tewameter manufactured by Courage +Khazaka electronic GmbH, respectively.

[2] = tested on: hairless mice (Hos: HR-1); assay: Water content of the skin (Corneometer) after oral administration, animal test; type: in vivo; conditions: three weeks, positive control
Description: as §1

[3] = 3 mg sphingomyelin per kg body weight, oral once daily, value at initiation = 100

sphingomyelin
Rate of TEWL increase [1, 3]: 86% | TEWL, times that of group A ([1]; 3 mg/kg sphingomyelin solely): 0.85 times | Rate of water content increase [2, 3]: 124% | water content of the skin, times as much as the water content of the skin of group A ([2]; 3 mg/kg sphingomyelin solely): 1.25 times
